{
  "source": "patent US12371748B2",
  "about": "“Genetic markers for predicting responsiveness to therapy with HDL-raising or HDL mimicking agent” (Hoffmann-La Roche Inc., priority 2014, dated 2025)",
  "test_system": "patients recently hospitalized for an Acute Coronary Syndrome (ACS)",
  "test": "dal-OUTCOMES pharmacogenomic study: cardiovascular events by ADCY9 genotype (Cox proportional hazards)",
  "type": "in vivo, human",
  "set-up": "key to Responsiveness to treatment: NR = non-responsive; PR = partially responsive; R = responsive",
  "conditions": "for Hazard ratio (dal vs placebo): time to events; for HR, dal-OUTCOMES: per copy of minor allele",
  "method": "Dal-OUTCOMES trial (NC20971) was a double blind, randomized, placebo-controlled, parallel group, multi-center, phase III study to assess the safety and efficacy of the CETP inhibitor dalcetrapib in patients recently hospitalized for an Acute Coronary Syndrome (ACS). At time of the interim analysis the study included 15871 randomized patients, distributed over two treatment arms: placebo (7933 patients) and dalcetrapib (600 mg daily; 7938 patients). […] The dal-OUTCOMES study details can be found in G. Schwartz et al., N. Engl. J. Med. 367; 22, 2012.\ndal-Outcomes patients were recruited 4 to 12 weeks following hospitalization for acute coronary syndrome characterized by elevated cardiac biomarkers, with symptoms of acute myocardial ischemia, ischemic electrocardiographic abnormalities that were new or presumed to be new, or loss of viable myocardium on imaging. Patients without elevated cardiac biomarkers were eligible to participate if symptoms of acute myocardial ischemia were accompanied by electrocardiographic changes that were new or presumed to be new and by additional evidence of obstructive coronary disease. (Schwartz G G et al. Am Heart J 2009; 158:896-901 e3).\nAll patients were following individualized programs to target LDL cholesterol levels of 100 mg per deciliter (2.6 mmol per liter) or lower by statin if tolerated and diet. No specific statin agent was specified, and patients were not excluded based on LDL cholesterol values. Patients with serum triglyceride levels of 400 mg per deciliter (4.5 mmol per liter) or higher were excluded. (Schwartz G G et al. N Engl J Med 2012; 367:2089-99) Eligible participants to the dal-Outcomes trial entered a single-blind placebo run-in period of approximately 4 to 6 weeks to allow for patients to stabilise and for completion of planned revascularisation procedures. At the end of the run-in period, eligible patients in stable condition were randomised in a 1:1 ratio to 600 mg of dalcetrapib or placebo on top of evidence-based medical care for acute coronary syndrome. Cardiovascular events were adjudicated by an independent clinical endpoint committee. For the pharmacogenomics study, 6338 patients were recruited from April 2008 through July 2010 at 461 sites in 14 countries and provided written informed consent to participate to the genetic study of the dal-OUTCOMES trial. DNA was extracted from whole blood. Following genomic data cleanup, samples from 5749 Caucasian patients were used for the discovery genome-wide association study (GWAS).\nThe Illumina Infinium HumanOmni2.5Exome-8v1_A BeadChip including 2,567,845 genetic variants (Illumina, San Diego, California) was used for the discovery GWAS of 5749 Caucasian participants to the dal-OUTCOMES study. The chromosome 16 region including 5 genes upstream and downstream of the adenylate cyclase type 9 (ADCY9) gene (CHR16: 3,400,000-4,600,000) was imputed using IMPUTE2, providing 17,764 variants for analysis with an average completion rate of 99.76%. A Sequenom panel was used for the confirmation of imputed single nucleotide polymorphisms (SNPs) in the ADCY9 gene identified in dal-OUTCOMES and were tested in the dal-PLAQUE-2 study, including 20 SNPs with P values<0.05 from the discovery GWAS.\nGenome-wide association study (GWAS)—Genome-wide genotyping was performed using 200 ng of genomic DNA in GLP-environment at the Beaulieu-Saucier Pharmacogenomics Centre (Montreal, Canada). The Illumina Infinium HumanOmni2.5Exome-8v1_A BeadChip (Illumina, San Diego, CA) including 2,567,845 genomic markers was used and processed according to the manufacturer's specifications. This chip includes over 200,000 exome variants identified through the Exome Chip Consortium. The remaining BeadChip content is a mix of rare and common SNPs from the 1000 Genome Project designed to be maximally informative for diverse world populations. Each BeadChip was scanned and analyzed using the Illumina iScan Reader. […]",
  "data": [
    {"smiles": "CCC(CC)CC1(C(=O)Nc2ccccc2SC(=O)C(C)C)CCCCC1", "note": "[dalcetrapib, thioisobutyric acid S-(2-{[1-(2-ethyl-butyl)-cyclohexanecarbonyl]-amino}-phenyl) ester]", "values": [
      {"measurement": "Responsiveness to treatment", "setting": "rs8061182 CC", "result": "NR"},
      {"measurement": "Hazard ratio (dal vs placebo)", "setting": "rs8061182 CC", "result": 1.52},
      {"measurement": "Responsiveness to treatment", "setting": "rs8061182 CT", "result": "PR"},
      {"measurement": "Hazard ratio (dal vs placebo)", "setting": "rs8061182 CT", "result": 0.99},
      {"measurement": "Responsiveness to treatment", "setting": "rs8061182 TT", "result": "R"},
      {"measurement": "Hazard ratio (dal vs placebo)", "setting": "rs8061182 TT", "result": 0.815},
      {"measurement": "HR, dal-OUTCOMES", "setting": "rs11647778, Cox additive genetic model", "result": 0.678},
      {"measurement": "Responsiveness to treatment", "setting": "rs11647778 CC", "result": "R"},
      {"measurement": "Hazard ratio (dal vs placebo)", "setting": "rs11647778 CC", "result": 0.691},
      {"measurement": "Responsiveness to treatment", "setting": "rs11647778 CG", "result": "PR"},
      {"measurement": "Hazard ratio (dal vs placebo)", "setting": "rs11647778 CG", "result": 0.966},
      {"measurement": "Responsiveness to treatment", "setting": "rs11647778 GG", "result": "NR"},
      {"measurement": "Hazard ratio (dal vs placebo)", "setting": "rs11647778 GG", "result": 1.300},
      {"measurement": "HR, dal-OUTCOMES", "setting": "rs11647828, Cox additive genetic model", "result": 0.696},
      {"measurement": "Responsiveness to treatment", "setting": "rs11647828 CC", "result": "R"},
      {"measurement": "Hazard ratio (dal vs placebo)", "setting": "rs11647828 CC", "result": 0.647},
      {"measurement": "Responsiveness to treatment", "setting": "rs11647828 CT", "result": "PR"},
      {"measurement": "Hazard ratio (dal vs placebo)", "setting": "rs11647828 CT", "result": 0.963},
      {"measurement": "Responsiveness to treatment", "setting": "rs11647828 TT", "result": "NR"},
      {"measurement": "Hazard ratio (dal vs placebo)", "setting": "rs11647828 TT", "result": 1.315},
      {"measurement": "HR, dal-OUTCOMES", "setting": "rs12595857, Cox additive genetic model", "result": 0.677},
      {"measurement": "Responsiveness to treatment", "setting": "rs12595857 AA", "result": "NR"},
      {"measurement": "Hazard ratio (dal vs placebo)", "setting": "rs12595857 AA", "result": 1.255},
      {"measurement": "Responsiveness to treatment", "setting": "rs12595857 AG", "result": "PR"},
      {"measurement": "Hazard ratio (dal vs placebo)", "setting": "rs12595857 AG", "result": 0.954},
      {"measurement": "Responsiveness to treatment", "setting": "rs12595857 GG", "result": "R"},
      {"measurement": "Hazard ratio (dal vs placebo)", "setting": "rs12595857 GG", "result": 0.719},
      {"measurement": "HR, dal-OUTCOMES", "setting": "rs12599911, Cox additive genetic model", "result": 0.674},
      {"measurement": "Responsiveness to treatment", "setting": "rs12599911 GG", "result": "R"},
      {"measurement": "Hazard ratio (dal vs placebo)", "setting": "rs12599911 GG", "result": 0.672},
      {"measurement": "Responsiveness to treatment", "setting": "rs12599911 GT", "result": "PR"},
      {"measurement": "Hazard ratio (dal vs placebo)", "setting": "rs12599911 GT", "result": 0.982},
      {"measurement": "Responsiveness to treatment", "setting": "rs12599911 TT", "result": "NR"},
      {"measurement": "Hazard ratio (dal vs placebo)", "setting": "rs12599911 TT", "result": 1.244},
      {"measurement": "HR, dal-OUTCOMES", "setting": "rs12920508, Cox additive genetic model", "result": 0.669},
      {"measurement": "Responsiveness to treatment", "setting": "rs12920508 CC", "result": "NR"},
      {"measurement": "Hazard ratio (dal vs placebo)", "setting": "rs12920508 CC", "result": 1.205},
      {"measurement": "Responsiveness to treatment", "setting": "rs12920508 CG", "result": "PR"},
      {"measurement": "Hazard ratio (dal vs placebo)", "setting": "rs12920508 CG", "result": 0.946},
      {"measurement": "Responsiveness to treatment", "setting": "rs12920508 GG", "result": "R"},
      {"measurement": "Hazard ratio (dal vs placebo)", "setting": "rs12920508 GG", "result": 0.676},
      {"measurement": "HR, dal-OUTCOMES", "setting": "rs12935810, Cox additive genetic model", "result": 1.377},
      {"measurement": "Responsiveness to treatment", "setting": "rs12935810 AA", "result": "NR"},
      {"measurement": "Hazard ratio (dal vs placebo)", "setting": "rs12935810 AA", "result": 1.260},
      {"measurement": "Responsiveness to treatment", "setting": "rs12935810 AG", "result": "NR"},
      {"measurement": "Hazard ratio (dal vs placebo)", "setting": "rs12935810 AG", "result": 1.043},
      {"measurement": "Responsiveness to treatment", "setting": "rs12935810 GG", "result": "R"},
      {"measurement": "Hazard ratio (dal vs placebo)", "setting": "rs12935810 GG", "result": 0.796},
      {"measurement": "HR, dal-OUTCOMES", "setting": "rs13337675, Cox additive genetic model", "result": 0.834},
      {"measurement": "Responsiveness to treatment", "setting": "rs13337675 AA", "result": "NR"},
      {"measurement": "Hazard ratio (dal vs placebo)", "setting": "rs13337675 AA", "result": 1.070},
      {"measurement": "Responsiveness to treatment", "setting": "rs13337675 AG", "result": "PR"},
      {"measurement": "Hazard ratio (dal vs placebo)", "setting": "rs13337675 AG", "result": 0.904},
      {"measurement": "Responsiveness to treatment", "setting": "rs13337675 GG", "result": "PR"},
      {"measurement": "Hazard ratio (dal vs placebo)", "setting": "rs13337675 GG", "result": 1.034},
      {"measurement": "HR, dal-OUTCOMES", "setting": "rs17136707, Cox additive genetic model", "result": 0.594},
      {"measurement": "Responsiveness to treatment", "setting": "rs17136707 CC", "result": "R"},
      {"measurement": "Hazard ratio (dal vs placebo)", "setting": "rs17136707 CC", "result": 0.552},
      {"measurement": "Responsiveness to treatment", "setting": "rs17136707 CT", "result": "PR"},
      {"measurement": "Hazard ratio (dal vs placebo)", "setting": "rs17136707 CT", "result": 0.835},
      {"measurement": "Responsiveness to treatment", "setting": "rs17136707 TT", "result": "NR"},
      {"measurement": "Hazard ratio (dal vs placebo)", "setting": "rs17136707 TT", "result": 1.058},
      {"measurement": "HR, dal-OUTCOMES", "setting": "rs74702385, Cox additive genetic model", "result": 0.599},
      {"measurement": "Responsiveness to treatment", "setting": "rs74702385 CC", "result": "NR"},
      {"measurement": "Hazard ratio (dal vs placebo)", "setting": "rs74702385 CC", "result": 1.053},
      {"measurement": "Responsiveness to treatment", "setting": "rs74702385 CT", "result": "R"},
      {"measurement": "Hazard ratio (dal vs placebo)", "setting": "rs74702385 CT", "result": 0.854},
      {"measurement": "Responsiveness to treatment", "setting": "rs74702385 TT", "result": "R"},
      {"measurement": "Hazard ratio (dal vs placebo)", "setting": "rs74702385 TT", "result": 0.348},
      {"measurement": "HR, dal-OUTCOMES", "setting": "rs111590482, Cox additive genetic model", "result": 0.606},
      {"measurement": "Responsiveness to treatment", "setting": "rs111590482 CC", "result": "R"},
      {"measurement": "Hazard ratio (dal vs placebo)", "setting": "rs111590482 CC", "result": 0.333},
      {"measurement": "Responsiveness to treatment", "setting": "rs111590482 CT", "result": "R"},
      {"measurement": "Hazard ratio (dal vs placebo)", "setting": "rs111590482 CT", "result": 0.856},
      {"measurement": "Responsiveness to treatment", "setting": "rs111590482 TT", "result": "NR"},
      {"measurement": "Hazard ratio (dal vs placebo)", "setting": "rs111590482 TT", "result": 1.054},
      {"measurement": "event rate in the primary efficacy endpoint, dalcetrapib arm compared to placebo arm", "setting": "whole study population, 600 mg daily, interim analysis", "result": "no evidence of reduction of the event rate"},
      {"measurement": "HR for cardiovascular events, AA compared to reference GG homozygotes at rs1967309", "setting": "within dalcetrapib arm", "result": 0.40},
      {"measurement": "HR for cardiovascular events, AG compared to reference GG homozygotes at rs1967309", "setting": "within dalcetrapib arm", "result": 0.68}
    ]}
  ]
}
